Laboratory results as given in article PMC10135033, “Sulfonamidoboronic Acids as “Cross-Class” Inhibitors of an Expanded-Spectrum Class C Cephalosporinase, ADC-33, and a Class D Carbapenemase, OXA-24/40: Strategic Compound Design to Combat Resistance in Acinetobacter baumannii” (Antibiotics, 2023).

Columns and labels:
ADC-33 = ADC-33 (Acinetobacter baumannii, UniProt A7Y407); assay: Ki determination, competition assay with nitrocefin (NCF) as substrate; format: biochemical; conditions: for Ki: corrected for NCF affinity, 5 min pre-incubation, pH 7.4
Method: (§1) The affinity of CR167 for the two different β-lactamases was measured in competition assays using nitrocefin (NCF) as the indicator substrate (Table 1).
(§2) The binding affinity of each of the compounds 6a–e with ADC-33 and with OXA-24/40 was determined after 5 min pre-incubation of boronic acid and the enzyme, using competition assays with nitrocefin (NCF) as the substrate. […] These compounds differ in three structural characteristics: stereochemistry, the presence of the m-carboxylate on the aromatic ring, and the small chain linked to the chiral center. […] Finally, the smaller the steric hindrance is at the R1 position, the higher the affinity is.
(§3) Ki values were determined by using nitrocefin as a reporter substrate and treating the compounds as competitive inhibitors. Steady-state kinetic parameters were determined by combining pure enzyme with nitrocefin in 50 mM NaH2PO4; 25 mM NaHCO3, pH 7.4 (for OXA-24/40); or 50 mM NaH2PO4, pH 7.4 (for ADC-33), at room temperature. Changes in absorbance were measured on a Cary 60 UV−Vis spectrophotometer (Agilent Technologies) and converted to velocity using the change-in-extinction coefficient specific to nitrocefin (ε = 17,400 M^−1·cm^−1 at 482 nm). Initial velocities were fit to the Michaelis–Menten equation, yielding kcat and Km values. Next, the enzyme was challenged with a constant concentration of nitrocefin and increasing amounts of inhibitor. IC50 values were used to calculate Ki values using the Cheng–Prusoff equation as previously described. Specifically, the measurements of the initial velocities were performed with the addition of 100 µM NCF after a 5 min pre-incubation of the enzyme (2 nM) with increasing concentration of the inhibitor [37]. To determine the average velocities (v0), data from three experiments were fit to Equation (1): (1) v0=vu −{vu[I]/IC 50+[I]} where vu represents the NCF uninhibited velocity and IC50 represents the inhibitor concentration that results in a 50% reduction in vu. The Ki value was corrected for the NCF affinity (Km values for both OXA-24/40 and ADC-33) with the Cheng–Prusoff equation (Equation (2)): (2) Ki=IC50/(1+[NCF]/KmNCF)

OXA-24/40 [1] = target: T1, OXA-24/40 (Acinetobacter baumannii, UniProt Q8RLA6); assay: as above; format: biochemical; conditions: corrected for NCF affinity; 5 min pre-incubation; pH 7.4, 25 mM NaHCO3; read-out: Ki OXA-24/40
T1 construct: made in house
Method: as §1, §2, §3

[2] = system: E. coli DH10B, ADC-33 in pBCSK-; assay: Antimicrobial susceptibility testing, broth microdilution; format: cell-based; conditions: BLI none; E. coli DH10B ADC-33 pBCSK-
Method: (§4) Based upon the inhibitor kinetics (Ki determinations), CR167 and the sulfonamidoboronic acid 6b were tested against E. coli strains expressing ADC-7 and ADC-33 cloned into pBCSK- (DH10B) (Table 3).
(§5) blaADC-7 pBCSK- and blaADC-33 pBCSK- were cloned and expressed in E. coli DH10B cells as previously described.
(§6) Testing of susceptibility to standard antibiotics was performed with broth microdilution according to CLSI guidelines. MICs for CAZ, CTX, FEP, and IMI were determined using cation-adjusted Mueller–Hinton broth according to CLSI methods, and CR167 or 6b was used at a fixed concentration of 10 mg/L. All MICs were interpreted according to the 2022 Clinical and Laboratory Standards Institute (CLSI) guidelines.

[3] = system: E. coli DH10B, ADC-7 in pBCSK-; assay: as above; format: cell-based; conditions: BLI none; E. coli DH10B ADC-7 pBCSK-
Method: as §4, §5, §6

[4] = system: A. baumannii ATCC 17978 native ADC KO, ADC-33 pQF1266; assay: as above; format: cell-based; conditions: BLI none; ATCC 17978 ADC KO, ADC-33 pQF1266
Method: (§7) The inhibitory effects of both compounds were tested against ADC-33 and OXA-24/-40 in A. baumannii, their native host. ATCC 17978, with its intrinsic chromosomal ADC knocked out (intrinsic OXA still present), was used in these experiments. In this isolate, the ADC MICs were not lowered by the inhibitors as much as they were against the E. coli background (Table 4).
Plasmid pBCSK- containing the blaADC-33 gene was digested with PvuII, which released the blaADC-33 gene, along with the lac promoter, which drives expression. This PvuII fragment was cloned into the SmaI site of the pQF1266 plasmid.
(§8) pWH1266 is a vector that replicates in A. baumannii, and the […] pWH1266 construct was generated as follows. The TEM gene was removed using inverse PCR, and an Xba1 site was engineered into the vector. blaOXA-24/40 and its upstream XerC/XerD were amplified from strain NM55. The amplified gene was cloned into the Xba1 site of the altered pWH1266 vector. The construct was confirmed using PCR and sequencing. Both blaADC-33 pQF1266 and […] pWH1266 were then expressed in A. baumannii ATCC 17978 that had the intrinsic chromosomal ADC gene knocked out.
(§9) The chromosomal blaADC-51 gene in ATCC 17978 was deleted and replaced with an apramycin resistance cassette using the recombineering method described by Tucker et al.. Primers used for this deletion were: Del AmpC-apra.For: […]; and Del AmpC-apra.Rev: […]. The correct deletion mutant was confirmed using PCR and sequencing.
as §6

[5] = system: A. baumannii ATCC 17978 native ADC KO, OXA-24 pWH1266; assay: as above; format: cell-based; conditions: BLI none; ATCC 17978 ADC KO, OXA-24 pWH1266
Method: as §7, §8, §9, §6

[6] = system: clinical A. baumannii isolate PR323 (OXA-24, OXA-65, ADC-218); assay: Antimicrobial susceptibility testing, clinical isolate, broth microdilution; format: cell-based; conditions: BLI none; PR323
Method: (§10) Clinical A. baumannii isolates containing ADC-33 or OXA-24/-40 in combination with various other well-defined β-lactamases were also tested against CR167 and 6b (Table 5).
(§11) The clinical A. baumannii isolates used to test the β-lactamase inhibitors were selected from a previously well-characterized collection in our lab. They were chosen as they had either ADC-33 and/or OXA-24 in combination with other known β-lactamases (for specific combinations, see Table 5).
as §6

[7] = system: clinical A. baumannii isolate PR328 (OXA-23, OXA-82, ADC-33); assay: as above; format: cell-based; conditions: BLI none; PR328
Method: as §10, §11, §6

[8] = system: clinical A. baumannii isolate PR378 (OXA-24, OXA-65, TEM-1); assay: as above; format: cell-based; conditions: BLI none; PR378
Method: as §10, §11, §6

[9] = system: clinical A. baumannii isolate PR396 (OXA-82, ADC-33); assay: as above; format: cell-based; conditions: BLI none
Method: as §10, §11, §6

[10] = system: clinical A. baumannii isolate PR408 (OXA-24, OXA-71, ADC-212); assay: as above; format: cell-based; conditions: BLI none; PR408
Method: as §10, §11, §6

[11] = system: clinical A. baumannii isolate PR462 (OXA-24, OXA-65, ADC-214); assay: as above; format: cell-based; conditions: BLI none
Method: as §10, §11, §6

[12] = system: clinical A. baumannii isolate PR474 (OXA-23, OXA-24, OXA-65, ADC-218); assay: as above; format: cell-based; conditions: BLI none; PR474
Method: as §10, §11, §6

[13] = system: E. coli DH10B pBCSK, blaADC-7; set-up: method as in PMID 29144724; conditions: without inhibitor; cited from earlier work
OXA-24/40 [14] = system: OXA-24/40; set-up: method as in PMID 20299220; conditions: cited from earlier work

T1 sequence (Q8RLA6 22-275): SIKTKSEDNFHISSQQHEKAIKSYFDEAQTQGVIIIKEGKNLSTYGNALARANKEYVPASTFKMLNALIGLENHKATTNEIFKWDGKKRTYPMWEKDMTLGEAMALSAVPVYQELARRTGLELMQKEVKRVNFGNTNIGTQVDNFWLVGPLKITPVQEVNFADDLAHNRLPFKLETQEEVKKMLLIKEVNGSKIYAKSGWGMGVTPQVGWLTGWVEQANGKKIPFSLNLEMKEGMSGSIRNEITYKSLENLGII

SMILES	Ki (ADC-33) [µM]	Ki (OXA-24/40 [1]) [µM]	MIC, antibiotic alone [2] [µg/mL]	MIC, antibiotic alone [3] [µg/mL]	MIC, antibiotic alone [4] [µg/mL]	MIC, antibiotic alone [5] [µg/mL]	MIC, antibiotic alone [6] [µg/mL]	MIC, antibiotic alone [7] [µg/mL]	MIC, antibiotic alone [8] [µg/mL]	MIC, antibiotic alone [9] [µg/mL]	MIC, antibiotic alone [10] [µg/mL]	MIC, antibiotic alone [11] [µg/mL]	MIC, antibiotic alone [12] [µg/mL]	further results
C[C@@H](NS(=O)(=O)Cc1ccccc1)B(O)O [6a]	3.1 ± 0.5	630 ± 70	–	–	–	–	–	–	–	–	–	–	–	fold less potent than 6b, ADC-33 (ADC-33; ratio of Ki, 6a vs 6b): 4 fold
CC[C@@H](NS(=O)(=O)Cc1ccccc1)B(O)O [6c]	193 ± 23	> 1000	–	–	–	–	–	–	–	–	–	–	–	–
CC[C@@H](NS(=O)(=O)Cc1cccc(C(=O)O)c1)B(O)O [6d]	22 ± 3	320 ± 30	–	–	–	–	–	–	–	–	–	–	–	–
CC[C@H](NS(=O)(=O)Cc1cccc(C(=O)O)c1)B(O)O [6e]	3.7 ± 0.6	> 1000	–	–	–	–	–	–	–	–	–	–	–	–
CC(C)(O/N=C(\C(=O)N[C@@H]1C(=O)N2C(C(=O)[O-])=C(C[n+]3ccccc3)CS[C@H]12)c1csc(N)n1)C(=O)O [CAZ, ceftazidime, reference compound]	–	–	2048	64	128	8	4096	2048	64	2048	1024	256	4096	MIC for CAZ alone [13]: 64 µg/mL
CO/N=C(\C(=O)N[C@@H]1C(=O)N2C(C(=O)O)=C(COC(C)=O)CS[C@H]12)c1csc(N)n1 [CTX, Cefotaxime, reference compound]	–	–	128	64	32	16	2048	256	64	512	1024	1024	1024	–
O=S(=O)(NCB(O)O)c1cc2c(Cl)ccc(Cl)c2s1 [DSABA, 4,7-dichloro-1-benzothien-2-yl-sulfonylaminomethyl boronic acid]	–	–	–	–	–	–	–	–	–	–	–	–	–	IC50 (OXA-24/40 [14]): 5.6 µM
CO/N=C(\C(=O)N[C@@H]1C(=O)N2C(C(=O)[O-])=C(C[N+]3(C)CCCC3)CS[C@H]12)c1csc(N)n1 [FEP, cefepime, reference compound]	–	–	0.5	0.5	4	32	–	–	–	–	–	–	–	–
C[C@@H](O)[C@H]1C(=O)N2C(C(=O)O)=C(SCCN=CN)C[C@H]12 [IMI, reference compound]	–	–	–	–	–	–	128	128	256	64	128	64	128	–
